According to the NIST ThermoML archive (doi:10.1016/j.fluid.2019.04.019):
± gives the expanded uncertainty stated by the source.

Columns and labels:
[1] = Molar enthalpy of transition or fusion; settings: Crystal; DSC
[2] = Crystal

Row | Structure (SMILES) | Molar enthalpy of transition or fusion [1] [kJ/mol] | Normal melting temperature ([2]; DTA) [°C] | Normal melting temperature ([2]; visual observation) [°C]
1 | CCCC[n+]1ccccc1.[Cl-] [1-butylpyridinium chloride] | 26.1 ± 0.76 | 132.2 ± 0.5 | –
2 | CCC[N+]1(C)CCCCC1.[Cl-] [1-methyl-1-propyl-piperidinium chloride] | – | – | 225.2 ± 0.5
3 | CC(O)C[N+](C)(C)C.[Cl-] (stereo not drawn) [beta.-methylcholine chloride] | 6.72 ± 0.29 | 169 ± 0.5 | –
4 | C[N+](C)(C)CCO.[Br-] [choline bromide] | – | – | 308.5 ± 0.5
5 | C[N+](C)(CCO)CCO.[Cl-] [diethanoldimethylammonium chloride] | – | – | 290.6 ± 0.5
6 | CC[N+](CC)(CC)CC.[Cl-] [tetraethylammonium chloride] | – | – | 262.2 ± 0.5
7 | C[N+](C)(C)C.[Cl-] [tetramethylammonium chloride] | – | – | 341.6 ± 0.5
8 | C[N+](C)(C)Cc1ccccc1.[Cl-] [trimethylbenzylammonium chloride] | – | – | 236.1 ± 0.5
